In brackets after ≈: the same amount, converted by molar mass.

In data set [1] the test system is PC 3 (prostate carcinoma). Put plainly: Cytotoxicity, MTT assay, PC 3 cells. In kind it is cell-based. The note with it: human prostate carcinoma cells, 144 hours incubation, read-out: PC3 (IC50, μg/ml). The protocol:
(§1) The compounds according to the invention have been pharmacologically tested against four human tumor cell lines: HT 29 (colon carcinoma), PC 3 (prostate carcinoma), H 460M (lung carcinoma), MKN-45 (gastric carcinoma). Cells were incubated with the tested compound for 144 hours, then cytotoxicity was determined by using the MTT assay (Mosman, T. “Rapid Colorimetric Assay for Cellular Growth and Survival: Application to Proliferation and Cytotoxicity Assay”; J. Immunolog. Methods, (1983), 65, 66; Green, L. M., “Rapid Colorimetric Assay for Cell Viability; Application to the Quantitation of Cytotoxic and Growth Inhibitory Lymphokines”, J. Immunol. Methods, (1984),;70, 257-268).
(§2) The compounds according to the invention have been pharmacologically tested against four human tumour cell lines: HT 29 (colon carcinoma), PC 3 (prostate carcinoma), H 460M (lung carcinoma), MKN45 (gastric carcinoma). Cells were incubated with the tested compound for 144 hours, then cytotoxicity was determined by using the MTT assay (Mosman, T. “Rapid Colorimetric Assay for Cellular Growth and Survival: Application to Proliferation and Cytotoxicity Assay”; J. Immunolog. Methods, (1983), 65, 66; Green, L. M., “Rapid Colorimetric Assay for Cell Viability; Application to the Quantitation of Cytotoxic and Growth Inhibitory Lymphokines”, J. Immunol. Methods, (1984), 70, 257-268).
A general note: Formazan colour is commonly taken as a measure of viable cells.

The next data set concerns HT 29 (colon carcinoma). Put plainly: Cytotoxicity, MTT assay, HT 29 cells. In kind it is cell-based. The note with it: human colon adenocarcinoma cells, 144 hours incubation, read-out: HT29 (IC50, μg/ml). How it is done:
as §1, §2

Data set [2] has as its system MKN-45 (gastric carcinoma). The data set is described as follows: Cytotoxicity, MTT assay, MKN-45 cells. The note with it: human gastric carcinoma cells, 144 hours incubation, read-out: MKN-45 (IC50, μg/ml). In kind it is cell-based. The protocol:
as §1, §2

The next data set deals with H 460M (lung carcinoma). The data set is described as follows: Cytotoxicity, MTT assay, H 460M cells. The data set is classed as cell-based. The note with it: human lung carcinoma cells, 144 hours incubation, read-out: H460M (IC50, μg/ml). How it is done: as §1, §2

Consider `NCCNC(=O)c1cccc2c1c(C(=O)C(=O)NC1=CC(=O)OC1)cn2Cc1ccc(Cl)cc1`, for which the melting point – broadly, the temperature of the solid-liquid transition – was in the range of 190 to 196 °C.
For the compound `O=C1C=C(NC(=O)C(=O)c2cn(Cc3ccc(Cl)cc3)c3cccc(CO)c23)CO1`, the melting point fell in the range of 238 to 240 °C.
In the case of `O=C1C=C(NC(=O)C(=O)c2cn(Cc3ccc(Cl)cc3)c3ccccc23)CS1`, the melting point was 268 to 270 °C.
As for `CN(C)CCNC(=O)c1cccc2c1c(C(=O)C(=O)NC1=CC(=O)OC1)cn2Cc1ccc(Cl)cc1`, the melting point was in the range of 225 to 227 °C.
In turn, `O=C1C=C(NC(=O)C(=O)c2cn(Cc3ccc(Cl)cc3)c3ccccc23)CO1` [Example 2, N-(5-oxo-2,5-dihydrofuran-3-yl)-2-(1-(4-chlorobenzyl)-1H-indol-3-yl)-2-oxo-acetamide] came in with a melting point of 253 to 255 °C. Besides, the IC50 in data set [1] was 0.22 µg/mL (≈ 0.557 µM). In addition, the IC50 in the data set on HT 29 (colon carcinoma) was 0.13 µg/mL (≈ 0.329 µM). The IC50 in data set [2] is 0.048 µg/mL (≈ 0.122 µM). The IC50 with H 460M (lung carcinoma) amounted to 0.011 µg/mL (≈ 0.0279 µM).
`O=C1C=C(NC(=O)C(=O)c2cn(Cc3ccc(F)cc3)c3ccccc23)CO1` [Example 3, N-(5-oxo-2,5-dihydrofuran-3-yl)-2-(1-(4-fluorobenzyl)-1H-indol-3-yl)-2-oxo-acetamide] had a melting point of 260 to 262 °C. Moreover, the IC50 in data set [1] is 0.035 µg/mL (≈ 0.0925 µM). Besides, in the data set with HT 29 (colon carcinoma), the IC50 is 0.0004 µg/mL (≈ 0.00106 µM). In data set [2], the IC50 was 0.088 µg/mL (≈ 0.233 µM). In addition, in the data set with H 460M (lung carcinoma), the IC50 stood at 0.012 µg/mL (≈ 0.0317 µM).
In the case of `O=C1C=C(NC(=O)C(=O)c2cn(Cc3ccc(Cl)cc3)c3cc(Cl)ccc23)CO1` [Example 4], the IC50 was 0.3 µg/mL (≈ 0.699 µM) in data set [1], 0.1 µg/mL (≈ 0.233 µM) in the data set with HT 29 (colon carcinoma), 0.12 µg/mL (≈ 0.28 µM) in data set [2] and 0.049 µg/mL (≈ 0.114 µM) in the data set with H 460M (lung carcinoma).
